Values after ≈ are worked out from the molar mass of the structure shown. Where two headings read alike, the source gives them in different places.
Tests used:
Assay in all cases: MIC assay
Type in all cases: cell-based
[1] = system: Streptococcus agalactiae ATCC 13813; conditions: for MIC50 / MIC90: Streptococcus agalactiae, ATCC13813
Procedure: (§1) The exact weighed amount was noted and the volume of solvent to reach a 80 mM dilution calculated. Half of the volume was added first, by adding Tween 80 and let stand for 5 minutes. In a second step, the other half of the volume DMSO was added and resuspended to help the dilution process. The closed tube was inverted 5-10 times and then vortexed very thoroughly for at least 30 seconds. If after this procedure crystals were still visible, the tube was placed in a shaker at 37° C. at 150 rpm for at least 30 minutes (it is indicated if the dissolution period was longer than 2 h). […] In case of Bis(4-Chlorophenyl) thiosulfonate, a lower concentrated stock solution of 2 mM needed to be prepared. For that, the required amount of compound was weighed in and 2% v/v Tween80 and 2% v/v DMSO of the end volume of the stock solution was added to the substance. This mix was heated in a water bath set to 40° C. and occasionally shaken. When the whole amount of the substance reached dissolution, the volume was filled up with growth medium until the end volume. This 2 mM stock solution of Bis(4-Chlorophenyl) thiosulfonate was used in the MIC plate and diluted two-fold, resulting in a testing range of Bis(4-Chlorophenyl) thiosulfonate from 1 mM to 0.002 mM.
(§2) The microorganisms as indicated in Table 4 were used to inoculate a tryptic soy agar (TSA) plate and incubated overnight at 37° C. After incubation 3-5 well-isolated colonies with the same morphology were selected from the TSA plate and resuspended in 2 mL 0.9% saline solution with 3-6 glass beads and vortexed. The optical density at 600 nm (OD600) of the bacterial suspension was measured with a spectrophotometer (Evolution™ 201/220 UV-Visible Spectrophotometer, Thermo Fisher Scientific) and diluted to an OD600 of 0.0008, which resembles 10^6 CFU/mL.
(§3) The MIC assay was performed in a flat-bottom 96-microtiter plate. 50 μL of MHB-II was added into columns 2-11, and 100 μL to column 12 for sterility control. 100 μL of the 8 mM test compound solution (method 1) was added to column 1. A two-fold dilution series of the solution in MHB-II was achieved by resuspending 50 μL of the 8 mM solution from column 1 to column 2. This step was repeated until column 10. The respective concentration of Tween 80 and DMSO in column 1 was 2.5%, which is two-fold diluted throughout the plate. 50 μL of the bacterial suspension was added to column 1-11. The microtiter plates were sealed with adhesive polyethylene film for sealing microplates (Diversified Biotech) and incubated for 24 h at 37° C. After incubation the OD was measured at 600 nm with the Varioskan (Thermo Fisher Scientific). The minimal concentration which causes reduction of final OD600 of the bacterial culture by 50% (MIC50) and by 90% (MIC90) was calculated after normalization of the obtained OD values to the growth control in column 11. This assay was repeated three times in three independent experiments.
(§4) Hereafter, the stock solutions of the compounds were used in three repetitions in a minimal inhibitory concentration (MIC) assay at a 2-fold dilution range with various bacteria from the gram-positive and gram-negative group and a yeast, Candida albicans. The concentrations that show only less than 10% growth after 24 h were considered the MIC90-values, whereas the concentrations that show 50% growth after 24 h when compared to the bacterial growth control were considered the MIC50-values. Escherichia coli and Staphylococcus aureus were used as representatives for a gram-negative bacteria and gram-positive bacteria, respectively. Furthermore, the yeast C. albicans was also tested.
(§5) In an Eppendorf tube between 10-20 mg of the test compound was weighed. Hereafter, the required amount of Tween 80 was added, followed by the amount DMSO. After vigorous shaking, the dissolved and transparent dilutions were diluted 10 times with Mueller Hinton Broth (MHB) for the MIC assay. […]

[2] = system: Klebsiella pneumoniae ATCC 13883; conditions: for MIC50 / MIC90: Klebsiella pneumoniae, ATCC13883
Procedure: as §1, §2, §3, §4, §5

[3] = system: Streptococcus Suis Type 2 21-018358-002; conditions: for MIC50 / MIC90: Streptococcus suis
Procedure: as §1, §2, §3, §4, §5

[4] = system: Staphylococcus aureus (MRSA) LUH14616; conditions: for MIC50 / MIC90: Staphylococcus aureus, MRSA
Procedure: as §1, §2, §3, §4, §5

[5] = system: Escherichia coli ATCC 25922; conditions: for MIC50 / MIC90: Escherichia coli, ATCC25922
Procedure: as §1, §2, §3, §4, §5

[6] = system: Streptococcus uberis ATCC 27985; conditions: for MIC50 / MIC90: Streptococcus uberis, ATCC27985
Procedure: as §1, §2, §3, §4, §5

[7] = system: Acinetobacter baumanni RUH875; conditions: for MIC90 / MIC50: Acinetobacter
Procedure: as §1, §2, §3, §4, §5

[8] = Example 2a, n = 3, ATCC 13813, read-out: MIC90 Streptococcus agalactiae (+)
[9] = Example 2a, n = 3, 21-018358-002
[10] = Example 2a, n = 3, 21-018358-002, read-out: MIC90 Streptococcus Suis Type 2 (+)
[11] = Example 2a, n = 3, LUH14616, read-out: MIC90 Staphylococcus aureus (+) (MRSA)
[12] = Example 2a, n = 3, ATCC 25922, read-out: MIC90 Escherichia coli
[13] = Example 2b, FIG. 1, no MIC90 detected in the tested range, read-out: Average MIC90 E. coli (Ec)
[14] = Example 2a, n = 3, ATCC 27985, read-out: MIC90 Streptococcus uberis (+)
[15] = RUH875, Example 2b, FIG. 1, no MIC90 detected in the tested range, read-out: Average MIC90 A. baumanni (Ab)
[16] = Example 2a, n = 3, RUH875, read-out: MIC90 Acinetobacter baumanni

Compound	MIC50 ([1]; Example 2a, n = 3, ATCC 13813)	MIC90 [1, 8]	MIC50 ([2]; Example 2a, n = 3, ATCC 13883)	MIC90 ([2]; Example 2a, n = 3, ATCC 13883)	MIC50 [3, 9]	MIC90 [3, 10]	MIC50 ([4]; Example 2a, n = 3, LUH14616)	MIC90 [4, 11]	MIC50 ([5]; Example 2a, n = 3, ATCC 25922)	MIC90 [5, 12]	MIC90 [5, 13]	MIC50 ([6]; Example 2a, n = 3, ATCC 27985)	MIC90 [6, 14]	MIC90 [7, 15]	MIC50 ([7]; Example 2a, n = 3, RUH875)	MIC90 [7, 16]	other results
Clc1ccc(SSc2ccc(Cl)cc2)cc1 [Bis (4-chlorophenyl) disulfide, Bis(4-chlorophenyl) disulfide]	10 µM (≈ 2.87 µg/mL)	70 µM (≈ 20.1 µg/mL)	> 4000 µM	> 4000 µM	60 µM (≈ 17.2 µg/mL)	50 µM (≈ 14.4 µg/mL)	< 8 µM	190 µM (≈ 54.6 µg/mL)	> 4000 µM	> 4000 µM	> 1000 µM	20 µM (≈ 5.74 µg/mL)	50 µM (≈ 14.4 µg/mL)	> 1000 µM	> 4000 µM	> 4000 µM	MIC90 ([1]; Example 2b, FIG. 1, no MIC90 detected in the tested range, read-out: Average MIC90 S. agalactiae (Sag)): > 1000 µM; MIC90 ([3]; Example 2b, FIG. 1, no MIC90 detected in the tested range, read-out: Average MIC90 S. suis (Ss)): > 1000 µM; MIC90 ([4]; Example 2b, FIG. 1, no MIC90 detected in the tested range, read-out: Average MIC90 S. aureus (Sau)): > 1000 µM; MIC90 ([6]; Example 2b, FIG. 1, no MIC90 detected in the tested range, read-out: Average MIC90 S. uberis (Su)): > 1000 µM
O=S(=O)(Sc1ccc(Cl)cc1)c1ccc(Cl)cc1 [Bis (4-chlorophenyl) thiosulfonate, Bis(4-chlorophenyl) thiosulfonate]																	MIC50 Streptococcus agalactiae (+) ([1]; Example 2a, n = 3, ATCC 13813): 160 µM; MIC90 Streptococcus agalactiae (+) ([1]; Example 2a, n = 3, ATCC 13813): 500 µM; MIC50 Klebsiella pneumoniae ([2]; Example 2a, n = 3, ATCC 13883): >1000 µM; MIC90 Klebsiella pneumoniae ([2]; Example 2a, n = 3, ATCC 13883): >1000 µM; MIC50 Streptococcus Suis Type 2 (+) [3, 9]: 130 µM; MIC90 Streptococcus Suis Type 2 (+) [3, 9]: 370 µM; MIC50 Staphylococcus aureus (+) (MRSA) ([4]; Example 2a, n = 3, LUH14616): 60 µM; MIC90 Staphylococcus aureus (+) (MRSA) ([4]; Example 2a, n = 3, LUH14616): 750 µM; MIC50 Escherichia coli ([5]; Example 2a, n = 3, ATCC 25922): >1000 µM; MIC90 Escherichia coli ([5]; Example 2a, n = 3, ATCC 25922): >1000 µM; MIC50 Streptococcus uberis (+) ([6]; Example 2a, n = 3, ATCC 27985): 60 µM; MIC90 Streptococcus uberis (+) ([6]; Example 2a, n = 3, ATCC 27985): 500 µM; MIC50 Acinetobacter baumanni ([7]; Example 2a, n = 3, RUH875): >1000 µM; MIC90 Acinetobacter baumanni ([7]; Example 2a, n = 3, RUH875): >1000 µM
Fc1ccc(SSc2ccc(F)cc2)cc1 [Bis (4-fluorophenyl) disulfide, Bis(4-fluorophenyl) disulfide]	210 µM (≈ 53.4 µg/mL)	500 µM (≈ 127 µg/mL)	> 4000 µM	> 4000 µM	380 µM (≈ 96.6 µg/mL)	1670 µM (≈ 425 µg/mL)	< 8 µM	2330 µM (≈ 593 µg/mL)	1250 µM (≈ 318 µg/mL)	> 4000 µM	> 4000 µM	210 µM (≈ 53.4 µg/mL)	630 µM (≈ 160 µg/mL)	> 4000 µM	3000 µM (≈ 763 µg/mL)	> 4000 µM	Average MIC90 K. pneumoniae (Kp) ([2]; Example 2b, FIG. 1, no MIC90 detected in the tested range): above 4000 μM
